Source: patent US7855166B2, “Sulfonylamino(thio)carbonyl compounds” (Bayer Cropscience GmbH, priority 2005, dated 2010)

Assays:
[1] = tested on: weed plants such as Sinapis alba, Chrysanthemum segetum, Avena sativa, Stellaria media, Echinochloa crus-galli, Lolium multiflorum, Setaria viridis, Abutilon …; test: Pre-emergence effect on weeds (greenhouse pot test, visual scoring); format: in vivo; settings: applied pre-emergence at a rate of 0.3 kg or less of active substance per hectare; scored after 3 to 4 weeks in comparison to untreated controls
[2] = tested on: weed plants such as Sinapis alba, Echinochloa crus-galli, Lolium multiflorum, Chrysanthemum segetum, Setaria viridis, Abutilon theophrasti, Amaranthus …; test: Post-emergence effect on weeds (greenhouse pot test, visual scoring); format: in vivo; settings: applied post-emergence (three-leaf stage) at a rate of 0.3 kg or less of active substance per hectare; scored after about 3 to 4 weeks in comparison to untreated controls

Row | SMILES | herbicidal action against weed plants (visual scoring of plant damage or emergence damage) [1] | herbicidal action against weed plants (effect scored visually) [2]
1 | CCOc1nn(C(=O)NS(=O)(=O)c2cc(C)c(C)cc2I)c(=O)n1C1CC1 [Compound 1.867] | very good herbidical action | very good herbicidal action
2 | CCCOc1nn(C(=O)NS(=O)(=O)c2cc(C)c(C)cc2I)c(=O)n1C1CC1 [Compound 1.868] | very good herbidical action | very good herbicidal action
3 | COc1nn(C(=O)NS(=O)(=O)c2ccc(Cl)cc2I)c(=O)n1C [Compound 1.869] | very good herbidical action | very good herbicidal action
4 | CCOc1nn(C(=O)NS(=O)(=O)c2ccc(Cl)cc2I)c(=O)n1C [Compound 1.870] | very good herbidical action | very good herbicidal action
5 | CCCOc1nn(C(=O)NS(=O)(=O)c2ccc(Cl)cc2I)c(=O)n1C [Compound 1.871] | very good herbidical action | very good herbicidal action
6 | CC(C)Oc1nn(C(=O)NS(=O)(=O)c2ccc(Cl)cc2I)c(=O)n1C [Compound 1.872] | very good herbidical action | very good herbicidal action
7 | COc1nn(C(=O)NS(=O)(=O)c2ccc(Cl)cc2I)c(=O)n1C1CC1 [Compound 1.873] | very good herbidical action | very good herbicidal action
8 | CCOc1nn(C(=O)NS(=O)(=O)c2ccc(Cl)cc2I)c(=O)n1C1CC1 [Compound 1.874] | very good herbidical action | very good herbicidal action
9 | CCCOc1nn(C(=O)NS(=O)(=O)c2ccc(Cl)cc2I)c(=O)n1C1CC1 [Compound 1.875] | very good herbidical action | very good herbicidal action
10 | CCCc1ccc(S(=O)(=O)NC(=O)n2nc(OC)n(C)c2=O)c(I)c1 [Compound 1.876] | very good herbidical action | very good herbicidal action
11 | CCCc1ccc(S(=O)(=O)NC(=O)n2nc(OCC)n(C)c2=O)c(I)c1 [Compound 1.877] | very good herbidical action | very good herbicidal action
12 | CCCOc1nn(C(=O)NS(=O)(=O)c2ccc(CCC)cc2I)c(=O)n1C [Compound 1.878] | very good herbidical action | very good herbicidal action
13 | CCCc1ccc(S(=O)(=O)NC(=O)n2nc(OC(C)C)n(C)c2=O)c(I)c1 [Compound 1.879] | very good herbidical action | very good herbicidal action
14 | CCCc1ccc(S(=O)(=O)NC(=O)n2nc(OC)n(C3CC3)c2=O)c(I)c1 [Compound 1.880] | very good herbidical action | very good herbicidal action
15 | CCCc1ccc(S(=O)(=O)NC(=O)n2nc(OCC)n(C3CC3)c2=O)c(I)c1 [Compound 1.881] | very good herbidical action | very good herbicidal action
16 | CCCOc1nn(C(=O)NS(=O)(=O)c2ccc(CCC)cc2I)c(=O)n1C1CC1 [Compound 1.882] | very good herbidical action | very good herbicidal action
17 | CCCCc1ccc(S(=O)(=O)NC(=O)n2nc(OCC)n(C)c2=O)c(I)c1 [Compound 1.883] | very good herbidical action | very good herbicidal action
18 | CCCCc1ccc(S(=O)(=O)NC(=O)n2nc(OCCC)n(C)c2=O)c(I)c1 [Compound 1.884] | very good herbidical action | very good herbicidal action
19 | CCCCc1ccc(S(=O)(=O)NC(=O)n2nc(OC)n(C)c2=O)c(I)c1 [Compound 1.885] | very good herbidical action | very good herbicidal action
20 | CCCCc1ccc(S(=O)(=O)NC(=O)n2nc(OC)n(C3CC3)c2=O)c(I)c1 [Compound 1.886] | very good herbidical action | very good herbicidal action
21 | CCCCc1ccc(S(=O)(=O)NC(=O)n2nc(OCC)n(C3CC3)c2=O)c(I)c1 [Compound 1.887] | very good herbidical action | very good herbicidal action
22 | CCCCc1ccc(S(=O)(=O)NC(=O)n2nc(OCCC)n(C3CC3)c2=O)c(I)c1 [Compound 1.888] | very good herbidical action | very good herbicidal action
23 | CCCCc1ccc(S(=O)(=O)NC(=O)n2nc(OC(C)C)n(C)c2=O)c(I)c1 [Compound 1.889] | very good herbidical action | very good herbicidal action
24 | CCOc1nn(C(=O)NS(=O)(=O)c2ccc(C(F)(F)F)cc2I)c(=O)n1C [Compound 1.890] | very good herbidical action | very good herbicidal action
25 | CCOc1nn(C(=O)NS(=O)(=O)c2ccc(C(F)(F)F)cc2I)c(=O)n1C1CC1 [Compound 1.891] | very good herbidical action | very good herbicidal action
26 | O=C(NS(=O)(=O)c1ccc(C(F)(F)F)cc1I)n1nc(C2CC2)n(C2CC2)c1=O [Compound 1.892] | very good herbidical action | very good herbicidal action
27 | COc1nn(C(=O)NS(=O)(=O)c2ccc(C(F)(F)F)cc2I)c(=O)n1C [Compound 1.893] | very good herbidical action | very good herbicidal action
28 | CCCOc1nn(C(=O)NS(=O)(=O)c2ccc(C(F)(F)F)cc2I)c(=O)n1C [Compound 1.894] | very good herbidical action | very good herbicidal action
29 | CC(C)Oc1nn(C(=O)NS(=O)(=O)c2ccc(C(F)(F)F)cc2I)c(=O)n1C [Compound 1.895] | very good herbidical action | very good herbicidal action
30 | COc1nn(C(=O)NS(=O)(=O)c2ccc(C(F)(F)F)cc2I)c(=O)n1C1CC1 [Compound 1.896] | very good herbidical action | very good herbicidal action
